Experiment [1] concerns Programmed Death-Ligand 1 (PD-L1). The experiment in a line: PD-L1 positive cells in AGS stomach cancer cell line by flow cytometry. Conditions: AGS cells, 0.2, 0.5, and 1 mM, compared to the Vehicle group (FIG. 2). The class given is cell-based. The source says:
It was intended to confirm the expression of a Programmed Death-Ligand 1 (PD-L1) protein, an immunity reduction marker of stomach cancer cells, by SD217, a novel compound of the present invention. The PD-L1 protein was a surface protein of stomach cancer cells, and the PD-L1 is a protein that evaded the immune responses of T cells by binding to programmed cell death-1 (PD-1), a surface protein of activated T cells. […] Specifically, in the same manner as in Example 1, AGS cells, a stomach cancer cell line, were treated with 0.2, 0.5, and 1 mM of SD217 and reacted. Thereafter, PD-L1 positive cells were analyzed by flow cytometry. As a control group, a Vehicle group treated with PBS was used, and as a positive control group, 1 mM Metformin was used.
(In flow cytometry, cells or beads pass a laser one at a time.)

Experiment [2] deals with AGS cell line, a stomach cancer cell line. As to the kind of experiment: Apoptosis of AGS stomach cancer cell line by Annexin/PI flow cytometry (SD217). Type of experiment: cell-based. Conditions: 48 hours. How it is done: It was determined whether SD217, a novel compound of the present invention, may specifically kill stomach cancer cells. Specifically, 2×10^5 of a AGS cell line, a stomach cancer cell line, was inoculated into a 6-well plate and then treated with SD217, the novel compound of the present invention, at a concentration of 0.2 mM after overnight, and after 48 hours, stained with Annexin/PI, and then apoptotic cells were analyzed by flow cytometry. As a control group, a Vehicle group treated with the same amount of PBS was used. Thereafter, early apoptotic cells were confirmed, a ratio of late apoptotic/necrotic cells was confirmed, and thus death of the stomach cancer cell line was confirmed.
It was confirmed whether SD217, the novel compound of the present invention, induced early and late apoptosis in stomach cancer cell line. Specifically, 2×10^5 of a AGS cell line, a stomach cancer cell line, was inoculated into a 6-well plate and then treated with SD217, the novel compound of the present invention, at concentrations of 1, 5, 10, 20, and 50 mM after overnight, and after 48 hours, stained with Annexin/PI, and then apoptotic cells were analyzed by flow cytometry.

Experiment [3] shares this test system. The experiment in a line: Stomach cancer transplant animal model (AGS subcutaneous in NSG mice), tumor growth. The note with it: NSG mice with AGS tumor, 50 mg/kg orally daily, compared to the Vehicle group (FIG. 3). Type of experiment: in vivo. As for the experimental part: It was confirmed whether SD217, the novel compound of the present invention, inhibited tumor growth. Specifically, a stomach cancer transplant animal model was fabricated by subcutaneously injecting 5×10^6 of the AGS cell line, a stomach cancer cell line, into 6-8-week-old immunodeficient mice (NSG). Thereafter, SD217 was orally administered daily at a concentration of 50 mg/kg. After AGS cell injection and SD217 administration, tumor size was measured three times weekly using calipers, and tumor volume was calculated by substituting the lengths in long axis and short axis of the tumor into Equation 1 below. As a control group, a Vehicle group injected with the same amount of PBS was used.

Where [4] appears, read: AGS cells, 1, 5, 10, 20, and 50 mM, compared to the Vehicle group (FIG. 4).

As to `N=C(N)NC(=N)Nc1ccc(F)cc1F` [SD217, 1-(2,4-difluorophenyl) biguanide], in experiment [1], the “number of PD-L1 positive cells” value was “significantly reduced”. In experiment [2] (AGS cells, 0.2 mM, Annexin/PI, compared to the Vehicle group (FIG. 1)), the apoptosis entry is “significantly increased”. Besides, in experiment [2] (setting [4]), the early apoptosis entry is “induced in a concentration-dependent manner” and the late apoptosis entry is “induced in a concentration-dependent manner”. Besides, in experiment [3], the tumor growth result is “significantly inhibited” and the tumor volume entry is listed as “significantly reduced”.
